Organism: Rattus norvegicus
Test: DrugMatrix - Regimen: Daily Repeat
Type: toxicity, organism-based, Sprague-Dawley
Parameters: regimen Daily Repeat, gender Male, age 6-8 weeks
Details: in vivo, po, route oral GAVAGE, vehicle .5 % CMC; for ALANINE AMINOTRANSFERASE / ALBUMIN / ALKALINE PHOSPHATASE / ASPARTATE AMINOTRANSFERASE / BLOOD UREA NITROGEN / CHLORIDE / CHOLESTEROL / CREATINE PHOSPHOKINASE / CREATININE / GLUCOSE / LACTATE DEHYDROGENASE / LIPASE / PHOSPHORUS / POTASSIUM / SODIUM / TOTAL BILIRUBIN / TOTAL PROTEIN / URIC ACID: tissue Plasma
[1] = 80 mg/kg, 2184 h, tissue Blood, dose level Low, time 91 day
[2] = 80 mg/kg, 2184 h, dose level Low, time 91 day
[3] = 80 mg/kg, […], tissue Blood, dose level Low, time 28 day
[4] = 80 mg/kg, […], dose level Low, time 28 day
[5] = 150 mg/kg, 72 h, tissue Blood, dose level M1, time 3 day
[6] = 150 mg/kg, 72 h, dose level M1, time 3 day
[7] = 150 mg/kg, 120 h, tissue Blood, dose level M1, time 5 day
[8] = 150 mg/kg, 120 h, dose level M1, time 5 day
[9] = 1500 mg/kg, 72 h, tissue Blood, dose level High, time 3 day
[10] = 1500 mg/kg, 72 h, dose level High, time 3 day
[11] = 1500 mg/kg, 120 h, tissue Blood, dose level High, time 5 day
[12] = 1500 mg/kg, 120 h, dose level High, time 5 day

O=c1cc(-c2ccccc2)oc2ccc3ccccc3c12 [BETA-NAPHTHOFLAVONE]
EOSINOPHIL [1]: 0.76%
ERYTHROCYTE COUNT [1]: 8.94 x10E6/uL
HEMATOCRIT [1]: 47.57%
HEMOGLOBIN [1]: 15.76 G/DL
LEUKOCYTE COUNT [1]: 15.13 x10E3/uL
LYMPHOCYTE [1]: 74.26%
MEAN CORPUSCULAR HEMOGLOBIN [1]: 17.63 pg
MEAN CORPUSCULAR HEMOGLOBIN CONCENTRATION [1]: 33.13 G/DL
MEAN CORPUSCULAR VOLUME [1]: 53.23 fL
MONOCYTE [1]: 1.9%
NEUTROPHIL [1]: 20.01%
PLATELET COUNT [1]: 1247.3 x10E3/uL
ALANINE AMINOTRANSFERASE [2]: 27.5 u/L
ALBUMIN [2]: 3.68 G/DL
ALKALINE PHOSPHATASE [2]: 82.2 u/L
ASPARTATE AMINOTRANSFERASE [2]: 64.9 u/L
BLOOD UREA NITROGEN [2]: 15.3 mg/dL
CHLORIDE [2]: 104 MEQ/L
CHOLESTEROL [2]: 68.4 mg/dL
CREATINE PHOSPHOKINASE [2]: 81.3 u/L
CREATININE [2]: 0.51 mg/dL
GLUCOSE [2]: 148 mg/dL
LACTATE DEHYDROGENASE [2]: 43.4 u/L
LIPASE [2]: 20.6 u/L
PHOSPHORUS [2]: 8.24 mg/dL
POTASSIUM [2]: 6.5 MEQ/L
SODIUM [2]: 150 MEQ/L
TOTAL BILIRUBIN [2]: 0.21 mg/dL
TOTAL PROTEIN [2]: 7.08 G/DL
URIC ACID [2]: 0.93 mg/dL
ABSOLUTE BASOPHIL [3]: 190 cells/µL
ABSOLUTE EOSINOPHIL [3]: 60 cells/µL
ABSOLUTE LYMPHOCYTE [3]: 13200 cells/µL
ABSOLUTE MONOCYTE [3]: 300 cells/µL
ABSOLUTE SEGMENTED NEUTROPHIL [3]: 1910 cells/µL
BASOPHIL [3]: 1.18%
EOSINOPHIL [3]: 0.36%
ERYTHROCYTE COUNT [3]: 8.59 x10E6/uL
HEMATOCRIT [3]: 48.64%
HEMOGLOBIN [3]: 16.08 G/DL
LEUKOCYTE COUNT [3]: 15.78 x10E3/uL
LYMPHOCYTE [3]: 83.98%
MEAN CORPUSCULAR HEMOGLOBIN [3]: 18.78 pg
MEAN CORPUSCULAR HEMOGLOBIN CONCENTRATION [3]: 33.1 G/DL
MEAN CORPUSCULAR VOLUME [3]: 56.7 fL
MONOCYTE [3]: 1.92%
NEUTROPHIL [3]: 12%
PLATELET COUNT [3]: 1252.8 x10E3/uL
ALANINE AMINOTRANSFERASE [4]: 30.4 u/L
ALBUMIN [4]: 3.64 G/DL
ALKALINE PHOSPHATASE [4]: 126 u/L
ASPARTATE AMINOTRANSFERASE [4]: 71.4 u/L
BLOOD UREA NITROGEN [4]: 13.4 mg/dL
CHLORIDE [4]: 103.4 MEQ/L
CHOLESTEROL [4]: 69.8 mg/dL
CREATINE PHOSPHOKINASE [4]: 116.2 u/L
CREATININE [4]: 0.48 mg/dL
GLUCOSE [4]: 156.6 mg/dL
LACTATE DEHYDROGENASE [4]: 80.8 u/L
LIPASE [4]: 13 u/L
PHOSPHORUS [4]: 9.74 mg/dL
POTASSIUM [4]: 6.34 MEQ/L
SODIUM [4]: 149.8 MEQ/L
TOTAL BILIRUBIN [4]: 0.24 mg/dL
TOTAL PROTEIN [4]: 6.58 G/DL
URIC ACID [4]: 0.58 mg/dL
BASOPHIL [5]: 0.43%
EOSINOPHIL [5]: 0.3%
ERYTHROCYTE COUNT [5]: 6.69 x10E6/uL
HEMATOCRIT [5]: 42.2%
HEMOGLOBIN [5]: 13.2 G/DL
LEUKOCYTE COUNT [5]: 11.3 x10E3/uL
LYMPHOCYTE [5]: 85.87%
MEAN CORPUSCULAR HEMOGLOBIN [5]: 19.73 pg
MEAN CORPUSCULAR HEMOGLOBIN CONCENTRATION [5]: 31.23 G/DL
MEAN CORPUSCULAR VOLUME [5]: 63.13 fL
MONOCYTE [5]: 2.17%
NEUTROPHIL [5]: 10.17%
PLATELET COUNT [5]: 1377.33 x10E3/uL
ALANINE AMINOTRANSFERASE [6]: 41.33 u/L
ALBUMIN [6]: 3.57 G/DL
ALKALINE PHOSPHATASE [6]: 337.33 u/L
ASPARTATE AMINOTRANSFERASE [6]: 68.33 u/L
BLOOD UREA NITROGEN [6]: 13 mg/dL
CHLORIDE [6]: 103.33 MEQ/L
CHOLESTEROL [6]: 100 mg/dL
CREATINE PHOSPHOKINASE [6]: 163.67 u/L
CREATININE [6]: 0.4 mg/dL
GLUCOSE [6]: 179 mg/dL
PHOSPHORUS [6]: 12.8 mg/dL
POTASSIUM [6]: 6.93 MEQ/L
SODIUM [6]: 148.33 MEQ/L
TOTAL BILIRUBIN [6]: 0.4 mg/dL
TOTAL PROTEIN [6]: 5.97 G/DL
BASOPHIL [7]: 0.37%
EOSINOPHIL [7]: 0.43%
ERYTHROCYTE COUNT [7]: 7.05 x10E6/uL
HEMATOCRIT [7]: 42.83%
HEMOGLOBIN [7]: 13.57 G/DL
LEUKOCYTE COUNT [7]: 14.17 x10E3/uL
LYMPHOCYTE [7]: 88.67%
MEAN CORPUSCULAR HEMOGLOBIN [7]: 19.27 pg
MEAN CORPUSCULAR HEMOGLOBIN CONCENTRATION [7]: 31.67 G/DL
MEAN CORPUSCULAR VOLUME [7]: 60.87 fL
MONOCYTE [7]: 1.77%
NEUTROPHIL [7]: 7.87%
PLATELET COUNT [7]: 1364.33 x10E3/uL
ALANINE AMINOTRANSFERASE [8]: 42.67 u/L
ALBUMIN [8]: 3.6 G/DL
ALKALINE PHOSPHATASE [8]: 295 u/L
ASPARTATE AMINOTRANSFERASE [8]: 69.33 u/L
BLOOD UREA NITROGEN [8]: 14 mg/dL
CHLORIDE [8]: 104 MEQ/L
CHOLESTEROL [8]: 99 mg/dL
CREATINE PHOSPHOKINASE [8]: 224.33 u/L
CREATININE [8]: 0.47 mg/dL
GLUCOSE [8]: 169 mg/dL
PHOSPHORUS [8]: 12.43 mg/dL
POTASSIUM [8]: 6.6 MEQ/L
SODIUM [8]: 147 MEQ/L
TOTAL BILIRUBIN [8]: 0.57 mg/dL
TOTAL PROTEIN [8]: 6 G/DL
BASOPHIL [9]: 0.4%
EOSINOPHIL [9]: 0.7%
ERYTHROCYTE COUNT [9]: 7.11 x10E6/uL
HEMATOCRIT [9]: 44.17%
HEMOGLOBIN [9]: 13.9 G/DL
LEUKOCYTE COUNT [9]: 12.26 x10E3/uL
LYMPHOCYTE [9]: 82.2%
MEAN CORPUSCULAR HEMOGLOBIN [9]: 19.53 pg
MEAN CORPUSCULAR HEMOGLOBIN CONCENTRATION [9]: 31.47 G/DL
MEAN CORPUSCULAR VOLUME [9]: 62.13 fL
MONOCYTE [9]: 2.5%
NEUTROPHIL [9]: 13.1%
PLATELET COUNT [9]: 1171.33 x10E3/uL
ALANINE AMINOTRANSFERASE [10]: 37 u/L
ALBUMIN [10]: 3.53 G/DL
ALKALINE PHOSPHATASE [10]: 263.67 u/L
ASPARTATE AMINOTRANSFERASE [10]: 61.67 u/L
BLOOD UREA NITROGEN [10]: 11.67 mg/dL
CHLORIDE [10]: 103.33 MEQ/L
CHOLESTEROL [10]: 122.33 mg/dL
CREATINE PHOSPHOKINASE [10]: 219.67 u/L
CREATININE [10]: 0.4 mg/dL
GLUCOSE [10]: 175.67 mg/dL
PHOSPHORUS [10]: 13.27 mg/dL
POTASSIUM [10]: 7 MEQ/L
SODIUM [10]: 145.33 MEQ/L
TOTAL BILIRUBIN [10]: 0.47 mg/dL
TOTAL PROTEIN [10]: 5.9 G/DL
BASOPHIL [11]: 0.43%
EOSINOPHIL [11]: 0.17%
ERYTHROCYTE COUNT [11]: 6.8 x10E6/uL
HEMATOCRIT [11]: 42.73%
HEMOGLOBIN [11]: 13.33 G/DL
LEUKOCYTE COUNT [11]: 11.39 x10E3/uL
LYMPHOCYTE [11]: 85.5%
MEAN CORPUSCULAR HEMOGLOBIN [11]: 19.63 pg
MEAN CORPUSCULAR HEMOGLOBIN CONCENTRATION [11]: 31.3 G/DL
MEAN CORPUSCULAR VOLUME [11]: 62.77 fL
MONOCYTE [11]: 1.77%
NEUTROPHIL [11]: 11.33%
PLATELET COUNT [11]: 1352 x10E3/uL
ALANINE AMINOTRANSFERASE [12]: 37.67 u/L
ALBUMIN [12]: 3.6 G/DL
ALKALINE PHOSPHATASE [12]: 289 u/L
ASPARTATE AMINOTRANSFERASE [12]: 66.67 u/L
BLOOD UREA NITROGEN [12]: 12.67 mg/dL
CHLORIDE [12]: 102.33 MEQ/L
CHOLESTEROL [12]: 101.33 mg/dL
CREATINE PHOSPHOKINASE [12]: 145 u/L
CREATININE [12]: 0.33 mg/dL
GLUCOSE [12]: 186 mg/dL
PHOSPHORUS [12]: 13.3 mg/dL
POTASSIUM [12]: 6.73 MEQ/L
SODIUM [12]: 147.67 MEQ/L
TOTAL BILIRUBIN [12]: 0.27 mg/dL
TOTAL PROTEIN [12]: 6.1 G/DL
